Columns and labels:
SGLT1 = biological target: T1, SGLT1 (Homo sapiens, UniProt P13866); assay: 14C-AMG uptake in BHK cells transfected with SGLT1 (96-well cell-based assay); details: 50 μM AMG, 37° C., 90 min
T1 construct: expressed in transfected cells
T1 sequence (P13866 1-664): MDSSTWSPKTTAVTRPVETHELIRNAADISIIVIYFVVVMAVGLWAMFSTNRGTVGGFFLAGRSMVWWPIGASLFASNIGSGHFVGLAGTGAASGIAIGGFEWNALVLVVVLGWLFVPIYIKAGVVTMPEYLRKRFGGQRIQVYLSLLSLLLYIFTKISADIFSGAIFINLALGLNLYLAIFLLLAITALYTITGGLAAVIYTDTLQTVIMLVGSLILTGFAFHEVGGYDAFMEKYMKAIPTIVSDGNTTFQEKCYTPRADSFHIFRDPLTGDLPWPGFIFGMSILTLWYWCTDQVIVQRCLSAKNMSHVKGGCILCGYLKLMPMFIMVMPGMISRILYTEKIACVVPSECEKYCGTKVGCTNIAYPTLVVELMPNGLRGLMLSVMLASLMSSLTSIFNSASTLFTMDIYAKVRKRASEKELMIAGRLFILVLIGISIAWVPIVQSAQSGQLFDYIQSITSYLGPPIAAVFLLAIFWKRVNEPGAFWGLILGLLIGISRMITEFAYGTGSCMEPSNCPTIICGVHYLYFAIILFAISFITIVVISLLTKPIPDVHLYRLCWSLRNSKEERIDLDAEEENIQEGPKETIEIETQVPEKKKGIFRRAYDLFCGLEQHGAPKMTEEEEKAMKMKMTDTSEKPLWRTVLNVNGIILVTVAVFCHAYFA
Description: (§1) The compounds can be tested for their SGLT inhibition properties by means of BHK cells expressing SGLT1 and SGLT2. The production of the cells and the testing can be carried out as described below.
To construct the SGLT1 expression vector (KL225), the SLC5A1 gene (homologous to NM_000343) was amplified from a cDNA library using standard PCR technology and cloned over NheI/XhoI sites into the pcDNA3.1 expression vector (Invitrogen) containing neomycin as a selection marker. In this vector, transcription uses the enhancer/promoter of human cytomegalovirus.
(§2) The final vector KL225 together with an additional vector containing a dihydrofolate reductase gene as a selection marker was introduced into cells. Transfection into BHK21 cells (ATCC CCL-10), cultivated in DMEM medium (GIBCO/BRL), supplemented with 10% foetal calf serum (FCS) and 20 mM glutamine, was carried out using calcium phosphate transfections according to Graham, F. L. and van der Ebb, A. J. (1973), Virology 52: 456 with 5-20 μg of uncut plasmids for 10^7 cells. Stable transfectants were selected in medium containing 1 mg/ml of G418 (GIBCO/BRL) and 20-5000 nM methotrexate as final concentration, where only cells which expressed the neomycin gene and overexpressed the dhfr gene were able to grow. After growth for 2-3 weeks, the cells were cloned (0.5 cells/well) and the clones were investigated for SGLT expression in radioactivity uptake tests.
(§3) The uptake of ^14C-α-methyl-D-glucopyranoside (AMG) in, for example, Xenopus oocytes injected with the corresponding cRNA has been described in principle (for example Wen-Sen Lee et al. (1994), J. Biol. Chem. 269, 12032-12039; Guofeng You et al. (1995), J. Biol. Chem. 270, 29365-29371).
(§4) A 96-well cell-based assay was developed and adapted to HTS requirements:
(§5) BHK cells (transfected with SGLT1 or SGLT2) were seeded into 96-well microtitre plates (Cultureplates, Perkin Elmer). After at least 24 h, medium was removed, and the cell layer was washed with assay buffer (140 mM NaCl, 2 mM KCl, 1 mM CaCl2, 1 mM MgCl2, 10 mM HEPES, 5 mM Tris, adjusted to pH 7.4 using 1 M KOH). After addition of 40 μl of assay buffer, 50 μl of AMG (50 μM for SGLT1 and 2 mM for SGLT2) in the presence or absence of compounds, the cells were incubated in a total volume of 100 μl at 37° C. for 90 min. Supernatant was removed by suction and discarded. Cells were washed and lysed by addition of 50 μl of water. After 10 min at room temperature, 200 μl of Micrsoscint 40 (Perkin Elmer) were added. The radioactivity was counted in a Topcount microplate scintillation counter (Perkin Elmer). The non-specific uptake was determined in sodium-free assay buffer (266 mM sucrose, 2 mM KCl, 1 mM CaCl2, 1 mM MgCl2, 10 mM HEPES, 5 mM Tris, adjusted to pH 7.4 using 1 M KOH).

SGLT2 = biological target: T2, SGLT2 (Homo sapiens, UniProt P31639); assay: 14C-AMG uptake in BHK cells transfected with SGLT2 (96-well cell-based assay); details: 2 mM AMG, 37° C., 90 min
T2 construct: expressed in transfected cells
T2 sequence (P31639 1-672): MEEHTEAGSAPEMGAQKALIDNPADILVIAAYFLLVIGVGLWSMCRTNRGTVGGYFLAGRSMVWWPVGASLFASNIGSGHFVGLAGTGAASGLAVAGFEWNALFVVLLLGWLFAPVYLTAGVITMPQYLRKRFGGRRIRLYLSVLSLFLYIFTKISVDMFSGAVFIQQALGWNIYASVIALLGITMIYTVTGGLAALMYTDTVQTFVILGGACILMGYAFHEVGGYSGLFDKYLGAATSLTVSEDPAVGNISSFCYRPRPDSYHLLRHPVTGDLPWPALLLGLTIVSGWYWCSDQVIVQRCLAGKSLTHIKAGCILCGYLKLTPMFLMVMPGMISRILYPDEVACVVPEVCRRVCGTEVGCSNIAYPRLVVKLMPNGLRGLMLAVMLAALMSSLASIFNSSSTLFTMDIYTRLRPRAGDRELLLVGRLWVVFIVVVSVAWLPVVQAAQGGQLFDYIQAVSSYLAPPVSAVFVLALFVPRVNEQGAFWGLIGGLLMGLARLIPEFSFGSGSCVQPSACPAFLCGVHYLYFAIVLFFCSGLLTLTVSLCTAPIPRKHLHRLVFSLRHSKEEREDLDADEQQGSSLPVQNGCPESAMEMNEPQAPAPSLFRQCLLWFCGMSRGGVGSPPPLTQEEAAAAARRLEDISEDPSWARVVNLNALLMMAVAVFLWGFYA
Description: as §1
To construct the SGLT2 expression vector (KL224), the SLC5A2 gene (homologous to NM_003041) was amplified from a cDNA library using standard PCR technology and cloned over NheI/XhoI sites into PCI-neo expression vector (Promega) containing neomycin as a selection marker. In this vector, transcription uses the enhancer/promoter of human cytomegalovirus and the SV40 polyadenylation signal.
as §2, with “KL224” for “KL225”
as §3, §4, §5

SMILES | IC50 (SGLT1) | IC50 (SGLT2) | melting point
Cc1ccccc1Cn1c(-c2ccccc2OCC(N)=O)nc2ccccc21 [Compound A7, 2-{2-[1-(2-Methylbenzyl)-1H-benzimidazol-2-yl]-phenoxy}acetamide] | > 10000 nM | 1000 to 10000 nM | 
COc1cc(C)c(-c2nc3ccc(F)c(F)c3n2Cc2c(C)cccc2C)c(OCC(N)=O)c1 [Compound A30, 2-{2-[1-(2,6-Dimethylbenzyl)-6,7-difluoro-1H-benzimidazol-2-yl]-5-methoxy-3-methylphenoxy}acetamide] | 1000 to 10000 nM | 10 to 1000 nM | 
Cc1cc(C)c(Cn2c(-c3ccccc3OCC(N)=O)nc3ccc(F)cc32)c(C)c1 [Compound A6, 2-{2-[6-Fluoro-1-(2,4,6-trimethylbenzyl)-1H-benzimidazol-2-yl]phenoxy}acetamide] | > 10000 nM | > 10000 nM | 
Cc1cccc(C)c1Cn1c(-c2ccc(F)cc2OCC(N)=O)nc2ccccc21 [Compound A17, 2-{2-[1-(2,6-Dimethylbenzyl)-1H-benzimidazol-2-yl]-5-fluorophenoxy}acetamide] | > 10000 nM | 10 to 1000 nM | 
COc1cc(C)c(-c2nc3cc(F)c(F)cc3n2Cc2c(C)cccc2C)c(OCC(N)=O)c1 [Compound A28, 2-{2-[1-(2,6-Dimethylbenzyl)-5,6-difluoro-1H-benzimidazol-2-yl]-5-methoxy-3-methylphenoxy}acetamide] | > 10000 nM | 1000 to 10000 nM | 
Cc1ccc(-c2nc3ccccc3n2Cc2c(C)cccc2C)c(OCC(N)=O)c1 [Compound A14, 2-{2-[1-(2,6-Dimethylbenzyl)-1H-benzimidazol-2-yl]-5-methylphenoxy}acetamide] | > 10000 nM | 10 to 1000 nM | 

Now from value to compound:

IC50 (SGLT1) | IC50 (SGLT2) | melting point | SMILES
1000 to 10000 nM | 10 to 1000 nM |  | Cc1cccc(C)c1Cn1c(-c2ccccc2OCC(N)=O)nc2cccc(Cl)c21 [Compound A24, 2-{2-[7-Chloro-1-(2,6-dimethylbenzyl)-1H-benzimidazol-2-yl]phenoxy}acetamide]
> 10000 nM | 10 to 1000 nM | 173 to 174 °C | COc1cc(C)c(-c2nc3ccc(F)cc3n2Cc2c(C)cccc2C)c(OCC(N)=O)c1 [Compound A1, 2-{2-[1-(2,6-dimethylbenzyl)-6-fluoro-1H-benzimidazol-2-yl]-5-methoxy-3-methylphenoxy}acetamide]
> 10000 nM | 1000 to 10000 nM |  | NC(=O)COc1ccccc1-c1nc2ccccc2n1Cc1c(F)cccc1Cl [Compound A20, 2-{2-[1-(2-Chloro-6-fluorobenzyl)-1H-benzimidazol-2-yl]phenoxy}acetamide]
> 10000 nM | 1000 to 10000 nM |  | Cc1cccc(C)c1Cn1c(-c2cccc(C)c2OCC(N)=O)nc2ccccc21 [Compound A12, 2-{2-[1-(2,6-Dimethylbenzyl)-1H-benzimidazol-2-yl]-6-methylphenoxy}acetamide]
